From ChEMBL document CHEMBL1154698, “Discovery of 3-aryl-4-isoxazolecarboxamides as TGR5 receptor agonists” (J Med Chem, 2009)
≈ marks a conversion by molar mass, not a printed value. Values belong to the molecule of their own block, whether it stands above or below them. Calls of active or inactive are those of the source. The rule behind the calls is not given here.

Key:
[1] = test system: Canis familiaris; assay: Increase in GLP1 secretion in hepatic portal vein of intrajejeunally dosed conscious Beagle dog at 1 mg.kg co-administered with glucose challenge; format: functional, organism-based; conditions: Canis lupus familiaris
[2] = Agonist activity at canine TGR5 expressed in melanophores assessed as melanosome dispersion by melanophore assay; format: functional, Canis lupus familiaris
[3] = Half life in CD1 rat at 2.5 mg/kg, iv or 5 mg/kg, po; format: ADME, organism-based; conditions: in vivo
[4] = test system: U2OS; assay: Increase in MRE/CRE-driven gene expression in human U2OS cells by luciferase reporter gene assay; format: functional, cell-based
[5] = target: Cytochrome P450 2C9 (Homo sapiens, UniProt P11712); assay: Inhibition of CYP2C9; format: ADME
[6] = Permeability in artificial membrane assay; format: ADME, cell membranes
[7] = Volume of distribution at steady state in CD1 rat at 2.5 mg/kg, iv or 5 mg/kg, po; format: ADME, organism-based; conditions: in vivo, read-out: Vdss
[8] = test system: Melanophore; assay: Induction of melanosome dispersion in melanophores; format: functional, cell-based; conditions: Xenopus laevis
[9] = Intrinsic clearance in dog hepatocytes; format: ADME, cell-based, Canis lupus familiaris, Liver, Hepatocyte
[10] = target: Cytochrome P450 2D6 (Homo sapiens, UniProt P10635); assay: Inhibition of CYP2D6; format: ADME
[11] = Intrinsic clearance in rat hepatocytes; format: ADME, cell-based, Liver, Hepatocyte
[12] = test system: Monocyte; assay: Inhibition of LPS-stimulated TNFalpha secretion in human primary monocytes; format: functional, cell-based
[13] = test system: Canis familiaris; assay: Decrease in portal vein glucose levels in intrajejeunally dosed conscious Beagle dog at 1 mg.kg co-administered with glucose challenge; format: functional, organism-based; conditions: Canis lupus familiaris
[14] = Aqueous solubility of the compound; format: physicochemical; conditions: buffer
[15] = Oral bioavailability in CD1 rat 5 mg/kg; format: ADME, organism-based; conditions: in vivo
[16] = Clearance in CD1 rat at 2.5 mg/kg, iv or 5 mg/kg, po; format: ADME, organism-based; conditions: in vivo
[17] = target: T1, G-protein coupled bile acid receptor 1 (Rattus norvegicus, UniProt Q80T02); assay: Agonist activity at rat TGR5 expressed in melanophores assessed as melanosome dispersion by melanophore assay; format: functional
T1 sequence (Q80T02 whole entry): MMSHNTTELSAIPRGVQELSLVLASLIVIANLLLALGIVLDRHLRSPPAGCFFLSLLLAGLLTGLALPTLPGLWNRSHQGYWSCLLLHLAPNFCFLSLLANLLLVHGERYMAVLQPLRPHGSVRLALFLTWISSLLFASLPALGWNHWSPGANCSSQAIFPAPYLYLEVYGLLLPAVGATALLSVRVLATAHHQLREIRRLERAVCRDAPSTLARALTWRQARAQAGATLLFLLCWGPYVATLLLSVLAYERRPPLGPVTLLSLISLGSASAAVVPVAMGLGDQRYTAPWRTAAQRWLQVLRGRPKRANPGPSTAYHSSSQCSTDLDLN

[18] = Clearance in CD1 rat at 3 mg/kg, iv or 30 mg/kg, po; format: ADME, organism-based; conditions: in vivo
[19] = Clearance in dog at 3 mg/kg, iv or 30 mg/kg, po; format: ADME, organism-based, Canis lupus familiaris; conditions: in vivo
[20] = Volume of distribution at steady state in CD1 rat at 3 mg/kg, iv or 30 mg/kg, po; format: ADME, organism-based; conditions: in vivo, read-out: Vdss
[21] = Volume of distribution at steady state in dog at 3 mg/kg, iv or 30 mg/kg, po; format: ADME, organism-based, Canis lupus familiaris; conditions: in vivo, read-out: Vdss
[22] = Oral bioavailability in CD1 rat at 30 mg/kg; format: ADME, organism-based; conditions: in vivo
[23] = Oral bioavailability in dog at 30 mg/kg; format: ADME, organism-based, Canis lupus familiaris; conditions: in vivo
[24] = Half life in dog at 3 mg/kg, iv or 30 mg/kg, po; format: ADME, organism-based, Canis lupus familiaris; conditions: in vivo
[25] = Half life in CD1 rat at 3 mg/kg, iv or 30 mg/kg, po; format: ADME, organism-based; conditions: in vivo

Sequence of Cytochrome P450 2D6 (P10635 whole entry): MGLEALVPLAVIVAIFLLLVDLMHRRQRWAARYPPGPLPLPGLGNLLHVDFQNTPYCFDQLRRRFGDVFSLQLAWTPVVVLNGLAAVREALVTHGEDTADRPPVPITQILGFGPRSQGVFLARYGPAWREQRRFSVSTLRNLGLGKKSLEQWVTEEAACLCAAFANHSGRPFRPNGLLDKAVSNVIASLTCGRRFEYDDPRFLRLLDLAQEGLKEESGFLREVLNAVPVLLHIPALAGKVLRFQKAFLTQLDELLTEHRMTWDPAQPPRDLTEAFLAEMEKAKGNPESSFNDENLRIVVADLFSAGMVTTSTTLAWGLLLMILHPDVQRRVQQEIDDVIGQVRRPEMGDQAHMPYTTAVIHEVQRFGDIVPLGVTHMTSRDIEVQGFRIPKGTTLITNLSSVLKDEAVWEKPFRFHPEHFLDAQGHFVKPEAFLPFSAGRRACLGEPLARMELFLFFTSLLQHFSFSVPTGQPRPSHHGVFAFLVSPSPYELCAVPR
Sequence of Cytochrome P450 2C9 (P11712 whole entry): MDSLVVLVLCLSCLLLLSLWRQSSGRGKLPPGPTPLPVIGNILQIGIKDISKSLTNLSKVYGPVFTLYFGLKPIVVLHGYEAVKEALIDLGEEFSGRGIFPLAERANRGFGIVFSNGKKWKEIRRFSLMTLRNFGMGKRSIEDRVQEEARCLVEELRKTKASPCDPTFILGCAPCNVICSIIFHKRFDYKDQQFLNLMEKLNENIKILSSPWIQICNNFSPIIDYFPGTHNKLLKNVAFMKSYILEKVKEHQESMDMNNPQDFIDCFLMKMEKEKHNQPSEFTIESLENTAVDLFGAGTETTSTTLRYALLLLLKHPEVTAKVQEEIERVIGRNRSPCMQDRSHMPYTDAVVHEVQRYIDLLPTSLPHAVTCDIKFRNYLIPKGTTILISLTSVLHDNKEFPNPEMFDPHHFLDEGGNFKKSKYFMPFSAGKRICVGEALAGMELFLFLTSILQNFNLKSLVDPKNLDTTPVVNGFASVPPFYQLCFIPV

pEC50 [2]: 7.2 | half-life [3]: 6.6 h | EC50 [4]: > 50.1 µM | IC50 [5]: > 10 µM | permeability [6]: 422 nanometer/sec | Vd [7]: 7.1 L/kg | EC50 [8]: 20 µM | CLint [9]: 90 mL/min/g | IC50 [10]: > 10 µM | CLint [11]: 48 mL/min/g | IC50 [12]: 0.158 µM | solubility [14]: 246 µM (≈ 88.9 µg/mL) | bioavailability [15]: 1% | clearance [16]: 85 mL/min/kg | EC50 [17]: 2 µM
Structure (SMILES): Cc1onc(-c2ccccc2Cl)c1C(=O)N(C)c1ccc(Cl)cc1
Activity [1]: Active | Activity [13]: Active

permeability [6]: 310 nanometer/sec | solubility [14]: 134 µM (≈ 50.3 µg/mL)
Structure (SMILES): CCN(C(=O)c1c(-c2ccccc2Cl)noc1C)c1cccc(Cl)c1

clearance [18]: 148 mL/min/kg | clearance [19]: 39 mL/min/kg | Vd [20]: 40 L/kg | permeability [6]: 257 nanometer/sec | CLint [9]: 111 mL/min/g | Vd [21]: 8.6 L/kg | CLint [11]: 54 mL/min/g | bioavailability [22]: < 1% | solubility [14]: 112 µM (≈ 42 µg/mL) | bioavailability [23]: 0.3% | half-life [24]: 5.2 h | half-life [25]: 8.7 h
Structure (SMILES): Cc1ccc(N(C)C(=O)c2c(-c3ccccc3Cl)noc2C)cc1Cl
